Results on one molecule are retold here after patent US8283342B2, “Napadisylate salt of 5-(2-{[6-(2,2-difluoro-2-phenylethoxy) hexyl]amino}-1-hydroxyethyl)-8-hydroxyquinolin-2(1H)-one as agonist of the β2 adrenergic receptor” (Almirall S.A., priority 2007, dated 2012).

Series [1] can be described thus: Differential scanning calorimetry (DSC) analysis. Format: physicochemical. To be noted: equilibrated at 30° C., heated at 10° C./min to 300° C. The protocol:
The differential scanning calorimetry (DSC) analysis was obtained using a DSC-821 Mettler-Toledo, serial number 5117423874. Samples were weighed into an aluminium pan, an aluminium lid placed on top of the sample and compressed with a brass rod. Samples were equilibrated at 30° C. and heated at 10° C./min to 300° C. The instrument was calibrated using indium and zinc standards.

Series [2] in a line: Thermogravimetric (TGA) analysis. In kind it is physicochemical. The procedure: The thermogravimetric (TGA) analysis was obtained using a TGA-SDTA-851 Mettler-Toledo, serial number 5118408555. Samples were placed into a tared aluminium pan and then positioned on a platinum crucible. Samples were heated from 30° C. at 10° C./min to 350° C. The instrument was calibrated using indium and aluminium standards.

For the molecule `O=S(=O)(O)c1cccc2c(S(=O)(=O)O)cccc12.O=c1ccc2c([C@@H](O)CNCCCCCCOCC(F)(F)c3ccccc3)ccc(O)c2[nH]1.O=c1ccc2c([C@@H](O)CNCCCCCCOCC(F)(F)c3ccccc3)ccc(O)c2[nH]1` [5-(-2-(6-(2,2-Difluoro-2-phenylethoxy)hexylamino)-1(R)-hydroxyethyl)-8-hydroxyquinolin-2(1H)-one heminapadisylate], in series [1], the “stability (no changes prior to the melting point range; no conversion into other polymorphs, no decomposition)” value is reported as “high stability”. Further, in series [2] (from approximately 200° C. to 220° C., heated from 30° C. at 10° C./min to 350° C.), the “weight loss due to the decomposition of the sample” value is on record as 3.1 % w/w. Further, the “hygroscopicity (no solvent/water release)” value in series [2] (prior to 200° C., in particular at 80-100° C., no change) is recorded as “lack of hygroscopicity”.
